The target in test [1] is Histone deacetylase 4 (Homo sapiens, UniProt P56524). In words: Inhibition of HDAC4 (unknown origin) using 6-carboxyfluorescein peptide as substrate preincubated with compound for 6 hrs followed by substrate addition by electrophoretic mobility shift assay.
For test [2], the system named is MV4-11. The test can be described thus: Induction of apoptosis in human MV4-11 cells assessed as late apoptotic cells at 1 uM measured after 6 hrs by annexin V-FITC/PI staining based FACS assay (reference value: 16.21%). The format is functional.
Test [3] addresses T1, Histone deacetylase 2 (Homo sapiens, UniProt Q92769). In words: Binding affinity to recombinant full length HDAC2 catalytic domain Cys274 (unknown origin) assessed as formation of single covalent adduct at 50 uM incubated for 2 hrs by trypsin-digest protein mapping analysis.
The target of test [4] is T1, Histone deacetylase 2. The test can be described thus: Inhibition of HDAC2 (unknown origin) using 6-carboxyfluorescein peptide as substrate preincubated with compound for 6 hrs followed by substrate addition by electrophoretic mobility shift assay.
Test [5] has as its target Histone deacetylase 5 (Homo sapiens, UniProt Q9UQL6). The test can be described thus: Inhibition of HDAC5 (unknown origin) using 6-carboxyfluorescein peptide as substrate preincubated with compound for 6 hrs followed by substrate addition by electrophoretic mobility shift assay. For orientation: A gel shift assay detects complexes by their altered migration in electrophoresis.

Test [6] has as its target T2, Histone deacetylase 11 (Homo sapiens, UniProt Q96DB2).
T2 sequence (Q96DB2 whole entry): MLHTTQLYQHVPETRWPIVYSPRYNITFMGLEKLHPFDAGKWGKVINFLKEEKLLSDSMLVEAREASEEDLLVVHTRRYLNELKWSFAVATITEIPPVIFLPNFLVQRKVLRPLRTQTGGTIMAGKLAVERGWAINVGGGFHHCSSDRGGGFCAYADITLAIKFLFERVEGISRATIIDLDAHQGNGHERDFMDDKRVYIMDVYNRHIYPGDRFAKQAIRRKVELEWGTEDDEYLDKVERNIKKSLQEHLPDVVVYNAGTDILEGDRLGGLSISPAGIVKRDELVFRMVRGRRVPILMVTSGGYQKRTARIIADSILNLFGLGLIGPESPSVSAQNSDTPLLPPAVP
The test can be described thus: Inhibition of full length recombinant human HDAC11 expressed in Sf9 cells using 6-carboxyfluorescein peptide as substrate preincubated with compound for 6 hrs followed by substrate addition and measured after 17 hrs by electrophoretic mobility shift assay.

Test [7] addresses T3, Histone deacetylase 8 (Homo sapiens, UniProt Q9BY41).
T3 sequence (Q9BY41 whole entry): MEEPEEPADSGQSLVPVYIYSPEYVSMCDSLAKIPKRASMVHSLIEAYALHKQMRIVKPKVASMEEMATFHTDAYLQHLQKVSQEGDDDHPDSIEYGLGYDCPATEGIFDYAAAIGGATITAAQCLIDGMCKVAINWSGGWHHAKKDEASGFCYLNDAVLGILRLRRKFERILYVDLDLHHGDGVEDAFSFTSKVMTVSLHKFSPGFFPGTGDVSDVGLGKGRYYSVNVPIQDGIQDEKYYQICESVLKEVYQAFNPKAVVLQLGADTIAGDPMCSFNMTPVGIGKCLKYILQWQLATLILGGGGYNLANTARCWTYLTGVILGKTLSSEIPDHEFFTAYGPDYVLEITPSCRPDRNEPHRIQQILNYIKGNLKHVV
In words: Inhibition of full length recombinant human HDAC8 expressed in Sf9 cells using 6-carboxyfluorescein peptide as substrate preincubated with compound followed by substrate addition and measured after 3 hrs by electrophoretic mobility shift assay.

Test [8] deals with MV4-11. In words: Induction of apoptosis in human MV4-11 cells assessed as healthy cells at 4 uM measured after 6 hrs by annexin V-FITC/PI staining based FACS assay (reference value: 63.50%). The format is functional. On the technique in general: Flow cytometry measures light scatter and fluorescence of single cells or particles in a stream.
In test [9] the target is Histone deacetylase 3 (Homo sapiens, UniProt O15379). In words: Inhibition of full length recombinant human HDAC3 expressed in Sf9 cells using 6-carboxyfluorescein peptide as substrate preincubated with compound for 6 hrs followed by substrate addition and measured after 3 hrs by electrophoretic mobility shift assay. It counts as cell-based.
Chain of Histone deacetylase 3 (O15379 whole entry): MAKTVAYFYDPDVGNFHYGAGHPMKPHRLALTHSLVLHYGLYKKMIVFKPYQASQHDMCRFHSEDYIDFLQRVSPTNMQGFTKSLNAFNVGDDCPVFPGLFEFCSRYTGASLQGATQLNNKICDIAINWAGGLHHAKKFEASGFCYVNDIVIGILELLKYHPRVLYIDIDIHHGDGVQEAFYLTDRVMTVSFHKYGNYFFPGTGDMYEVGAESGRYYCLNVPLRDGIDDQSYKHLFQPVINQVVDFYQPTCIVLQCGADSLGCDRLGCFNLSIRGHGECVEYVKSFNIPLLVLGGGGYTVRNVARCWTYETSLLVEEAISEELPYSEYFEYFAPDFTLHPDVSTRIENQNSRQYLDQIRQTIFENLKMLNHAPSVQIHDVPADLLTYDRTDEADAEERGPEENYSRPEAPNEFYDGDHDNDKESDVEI
The target in test [10] is T4, Polyamine deacetylase HDAC10 (Homo sapiens, UniProt Q969S8).
T4 sequence (Q969S8 whole entry): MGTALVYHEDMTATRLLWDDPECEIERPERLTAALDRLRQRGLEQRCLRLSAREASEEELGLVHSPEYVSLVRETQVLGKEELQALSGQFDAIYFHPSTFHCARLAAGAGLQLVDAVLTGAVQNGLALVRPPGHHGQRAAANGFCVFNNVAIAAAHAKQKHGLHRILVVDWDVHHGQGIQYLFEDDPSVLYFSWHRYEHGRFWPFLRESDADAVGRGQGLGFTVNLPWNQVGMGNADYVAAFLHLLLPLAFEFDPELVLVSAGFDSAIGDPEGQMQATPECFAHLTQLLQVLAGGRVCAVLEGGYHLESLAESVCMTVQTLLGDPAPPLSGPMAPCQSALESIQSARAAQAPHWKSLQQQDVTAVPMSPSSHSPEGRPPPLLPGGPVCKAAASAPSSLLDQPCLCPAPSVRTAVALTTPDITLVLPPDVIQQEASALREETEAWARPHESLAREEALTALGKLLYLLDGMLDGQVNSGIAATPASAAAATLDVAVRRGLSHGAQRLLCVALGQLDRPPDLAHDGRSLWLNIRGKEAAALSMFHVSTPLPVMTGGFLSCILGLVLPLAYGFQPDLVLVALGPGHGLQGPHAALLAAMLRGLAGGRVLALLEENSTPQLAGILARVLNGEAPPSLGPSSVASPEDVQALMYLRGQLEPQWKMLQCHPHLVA
The test can be described thus: Inhibition of HDAC10 (unknown origin) using 6-carboxyfluorescein peptide as substrate preincubated with compound for 6 hrs followed by substrate addition by electrophoretic mobility shift assay.

For test [11], the target named is T1, Histone deacetylase 2. In words: Inhibition of HDAC2 (unknown origin) using 6-carboxyfluorescein peptide as substrate preincubated with compound followed by substrate addition by electrophoretic mobility shift assay.

The source made the active and inactive calls. The rule behind the calls is not given here.

One may read the IC50 as the concentration at which inhibition is half-maximal.

T1 sequence (Q92769 whole entry, the tested form may be a part): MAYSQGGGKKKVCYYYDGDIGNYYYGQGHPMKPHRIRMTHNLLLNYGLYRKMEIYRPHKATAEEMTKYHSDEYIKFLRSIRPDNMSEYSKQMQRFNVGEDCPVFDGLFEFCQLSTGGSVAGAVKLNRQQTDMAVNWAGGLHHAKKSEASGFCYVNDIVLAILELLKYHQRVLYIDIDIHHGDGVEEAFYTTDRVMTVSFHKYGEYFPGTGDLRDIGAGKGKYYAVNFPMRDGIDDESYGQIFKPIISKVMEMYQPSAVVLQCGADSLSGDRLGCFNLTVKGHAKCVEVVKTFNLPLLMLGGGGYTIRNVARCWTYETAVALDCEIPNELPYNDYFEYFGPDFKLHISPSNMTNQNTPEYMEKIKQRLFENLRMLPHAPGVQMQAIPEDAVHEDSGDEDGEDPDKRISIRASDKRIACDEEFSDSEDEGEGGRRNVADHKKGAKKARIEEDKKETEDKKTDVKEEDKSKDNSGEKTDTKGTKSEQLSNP
Chain of Histone deacetylase 4 (P56524 whole entry): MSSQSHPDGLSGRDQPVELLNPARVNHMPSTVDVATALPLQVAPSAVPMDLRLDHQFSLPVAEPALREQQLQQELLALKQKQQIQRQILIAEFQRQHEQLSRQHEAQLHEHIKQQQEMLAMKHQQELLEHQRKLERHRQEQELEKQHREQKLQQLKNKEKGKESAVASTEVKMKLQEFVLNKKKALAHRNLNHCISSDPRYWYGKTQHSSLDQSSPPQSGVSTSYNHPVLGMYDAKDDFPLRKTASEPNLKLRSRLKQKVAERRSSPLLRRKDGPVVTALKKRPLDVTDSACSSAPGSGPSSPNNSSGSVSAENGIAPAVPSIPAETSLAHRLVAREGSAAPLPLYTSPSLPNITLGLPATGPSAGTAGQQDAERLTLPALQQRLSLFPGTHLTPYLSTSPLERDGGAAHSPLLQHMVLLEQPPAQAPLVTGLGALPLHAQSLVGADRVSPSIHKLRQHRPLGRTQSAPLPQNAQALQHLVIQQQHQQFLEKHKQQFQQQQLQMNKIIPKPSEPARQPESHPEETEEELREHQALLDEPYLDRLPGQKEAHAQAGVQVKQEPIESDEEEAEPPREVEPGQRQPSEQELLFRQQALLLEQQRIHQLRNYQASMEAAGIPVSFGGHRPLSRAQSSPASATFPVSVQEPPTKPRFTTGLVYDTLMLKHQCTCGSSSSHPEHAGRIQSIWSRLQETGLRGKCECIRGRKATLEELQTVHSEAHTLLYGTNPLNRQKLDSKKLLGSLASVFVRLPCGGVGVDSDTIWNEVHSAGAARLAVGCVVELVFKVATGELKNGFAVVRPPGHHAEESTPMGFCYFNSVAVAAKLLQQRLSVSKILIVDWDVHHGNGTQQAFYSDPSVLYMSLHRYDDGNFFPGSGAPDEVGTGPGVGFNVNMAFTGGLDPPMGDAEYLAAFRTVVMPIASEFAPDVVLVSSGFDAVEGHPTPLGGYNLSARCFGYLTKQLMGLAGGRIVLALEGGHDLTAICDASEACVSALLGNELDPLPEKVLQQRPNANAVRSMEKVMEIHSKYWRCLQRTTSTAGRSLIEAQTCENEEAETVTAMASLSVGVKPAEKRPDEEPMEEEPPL
Chain of Histone deacetylase 5 (Q9UQL6 whole entry): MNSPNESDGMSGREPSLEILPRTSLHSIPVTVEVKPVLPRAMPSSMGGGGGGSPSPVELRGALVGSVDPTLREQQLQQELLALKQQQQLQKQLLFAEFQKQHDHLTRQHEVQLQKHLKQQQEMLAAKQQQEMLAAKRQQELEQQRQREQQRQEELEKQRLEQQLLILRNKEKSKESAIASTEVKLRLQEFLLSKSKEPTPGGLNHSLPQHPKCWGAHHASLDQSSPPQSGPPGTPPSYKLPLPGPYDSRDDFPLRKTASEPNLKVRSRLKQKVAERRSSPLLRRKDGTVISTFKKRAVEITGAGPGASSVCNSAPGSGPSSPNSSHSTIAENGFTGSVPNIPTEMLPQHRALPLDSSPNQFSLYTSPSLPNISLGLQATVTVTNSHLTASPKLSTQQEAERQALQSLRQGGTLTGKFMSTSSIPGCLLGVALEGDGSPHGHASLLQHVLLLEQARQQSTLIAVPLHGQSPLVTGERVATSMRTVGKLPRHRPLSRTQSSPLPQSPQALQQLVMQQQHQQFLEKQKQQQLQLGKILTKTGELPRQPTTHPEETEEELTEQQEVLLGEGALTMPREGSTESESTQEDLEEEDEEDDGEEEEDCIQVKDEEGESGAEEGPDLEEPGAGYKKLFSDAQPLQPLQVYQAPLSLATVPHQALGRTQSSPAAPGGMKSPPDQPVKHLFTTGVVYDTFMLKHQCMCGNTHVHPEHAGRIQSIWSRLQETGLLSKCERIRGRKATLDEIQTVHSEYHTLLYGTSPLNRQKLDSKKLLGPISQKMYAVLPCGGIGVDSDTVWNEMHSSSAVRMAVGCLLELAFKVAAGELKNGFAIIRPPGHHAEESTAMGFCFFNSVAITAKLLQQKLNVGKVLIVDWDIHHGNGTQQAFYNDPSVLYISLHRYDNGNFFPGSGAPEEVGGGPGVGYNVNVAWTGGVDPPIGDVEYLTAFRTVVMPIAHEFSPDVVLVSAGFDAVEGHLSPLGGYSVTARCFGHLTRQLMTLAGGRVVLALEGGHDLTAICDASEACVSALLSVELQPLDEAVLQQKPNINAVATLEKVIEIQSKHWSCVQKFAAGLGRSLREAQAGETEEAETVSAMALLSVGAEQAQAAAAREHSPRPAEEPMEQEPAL

Regarding `Nc1ccccc1NC(=O)c1ccc(CNC(=O)OC2CCN(S(=O)(=O)c3c(F)c(F)c(F)c(F)c3F)CC2)cc1`, the IC50 in [1] is more than 10000 nM; in [4] it was 154 nM; in test [5], more than 10000 nM; in test [6], more than 2000 nM; in [7], more than 10000 nM; in [9] it was 143 nM. In addition, the IC50 was more than 10000 nM in [10] and 808 nM in [11]. Further, the figures for the Activity in [2] and in test [8] were 48.31% and 4.57%, respectively. The result in test [3] was Active.

(Values after ChEMBL document CHEMBL5375983, “Discovery of YSR734: A Covalent HDAC Inhibitor with Cellular Activity in Acute Myeloid Leukemia and Duchenne Muscular Dystrophy” (J Med Chem, 2023).)
